Experimental findings from ChEMBL document CHEMBL4190375, “Current Insights of BRAF Inhibitors in Cancer” (J Med Chem, 2018) are described below.

Data set [1] concerns the target T1, Serine/threonine-protein kinase B-raf (Homo sapiens, UniProt P15056, V600E). Kind of data set: Inhibition of BRAF V600E mutant in human A375 cells assessed as reduction in ERK phosphorylation. The data set is classed as cell-based.
The target of data set [2] is T1, Serine/threonine-protein kinase B-raf. Kind of data set: Inhibition of BRAF V600E mutant (unknown origin).
For data set [3], the system named is A-375. Kind of data set: Cytotoxicity against human A375 cells harboring BRAF V600E mutant after 72 hrs by CellTiter-Glo assay. The data set is classed as functional, cell-based. As to conditions: A-375, 72 h. For orientation: In ATP-based viability assays light output follows the ATP content of the culture.
The target of data set [4] is T1, Serine/threonine-protein kinase B-raf.
Data set [5] has the same target. Kind of data set: biochemical.
In data set [6] the test system is A-375. Description: Cytotoxicity against human A375 cells harboring BRAF V600E mutant. Type of data set: functional, cell-based.
Data set [7] addresses T2, Serine/threonine-protein kinase B-raf (Homo sapiens, UniProt P15056). Kind of data set: Inhibition of BRAF in human Jurkat T cells assessed as reduction in ERK phosphorylation. Type of data set: cell-based.
Another data set concerns SK-MEL19. Kind of data set: Cytotoxicity against human SK-MEL-19 cells harboring BRAF mutant after 3 days. The data set is classed as functional, cell-based. As to conditions: SK-MEL19, 72 h.
In the next data set the test system is SK-MEL-28. Description: Cytotoxicity against human SK-MEL-28 cells after 72 hrs by CellTiter-Glo assay. Type of data set: functional, cell-based. As to conditions: SK-MEL-28, 72 h.
Data set [8] is described as follows: Cytotoxicity against human HCC364 cells harboring p61 V600E mutant. Type of data set: functional, cell-based.
Data set [9] is described as follows: Tmax in human. As to conditions: in vivo. The data set is classed as ADME, organism-based.
A short description of data set [10]: Cytotoxicity against human PLGA cells harboring BRAF V600E mutant after 96 hrs by CellTiter-Glo assay. Type of data set: functional, cell-based.
The subject of data set [11] is A-375. Description: Cytotoxicity against human A375 cells harboring BRAF V600E mutant after 48 hrs by CellTiter-Glo assay. The data set is classed as functional, cell-based. As to conditions: A-375, 48 h.
The next data set has as its system SK-MEL-30. Kind of data set: cells. To be noted: Homo sapiens, SK-MEL-30, 48 h.
Data set [12] in a line: Half life in human. Type of data set: ADME, organism-based. As to conditions: in vivo.
Data set [13] addresses T2, Serine/threonine-protein kinase B-raf. Kind of data set: Inhibition of wild type BRAF (unknown origin) by Z'-LYTE assay.
The target of data set [14] is T3, RAF proto-oncogene serine/threonine-protein kinase (Homo sapiens, UniProt P04049). Kind of data set: Inhibition of CRAF (unknown origin) by Z'-LYTE assay.
T3 sequence (P04049 whole entry): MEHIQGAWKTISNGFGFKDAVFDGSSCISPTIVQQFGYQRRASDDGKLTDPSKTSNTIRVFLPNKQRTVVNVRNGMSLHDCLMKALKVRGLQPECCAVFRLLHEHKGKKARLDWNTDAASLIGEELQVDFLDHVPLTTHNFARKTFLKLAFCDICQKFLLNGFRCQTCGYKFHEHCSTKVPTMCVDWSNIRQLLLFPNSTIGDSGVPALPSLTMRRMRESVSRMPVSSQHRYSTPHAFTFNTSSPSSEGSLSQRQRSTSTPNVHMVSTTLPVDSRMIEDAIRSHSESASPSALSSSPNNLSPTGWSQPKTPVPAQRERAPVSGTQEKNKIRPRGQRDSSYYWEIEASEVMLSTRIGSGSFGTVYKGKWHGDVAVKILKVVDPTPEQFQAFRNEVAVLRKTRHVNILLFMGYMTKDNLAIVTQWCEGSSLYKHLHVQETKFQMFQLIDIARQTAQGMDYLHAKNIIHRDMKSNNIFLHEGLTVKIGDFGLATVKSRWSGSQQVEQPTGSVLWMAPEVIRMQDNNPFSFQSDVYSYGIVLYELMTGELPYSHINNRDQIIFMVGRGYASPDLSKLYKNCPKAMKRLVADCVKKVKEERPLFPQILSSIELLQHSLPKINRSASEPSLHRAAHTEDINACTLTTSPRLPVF
The subject of data set [15] is A-375. Description: Cytotoxicity against human A375 cells harboring BRAF V600E mutant after 72 hrs by alamar blue assay. To be noted: A-375, 72 h. Type of data set: functional, cell-based.
The target of data set [16] is T1, Serine/threonine-protein kinase B-raf. Kind of data set: Inhibition of BRAF V600E mutant in human A375 cells assessed as reduction in ERK phosphorylation after 2 hrs by ELISA. The data set is classed as cell-based.
For data set [17] the target is unchanged. Kind of data set: Inhibition of BRAF V600E mutant (unknown origin) by Z'-LYTE assay.
Data set [18] concerns A-375. Description: Cytotoxicity against human A375 cells harboring BRAF V600E mutant after 96 hrs by CellTiter-Glo assay. Type of data set: functional, cell-based. As to conditions: A-375, 96 h.
In data set [19] the target is T1, Serine/threonine-protein kinase B-raf. The source holds these as a separate data set.
Data set [20] concerns the target T4, Serine/threonine-protein kinase A-Raf (Homo sapiens, UniProt P10398).
T4 sequence (P10398 whole entry): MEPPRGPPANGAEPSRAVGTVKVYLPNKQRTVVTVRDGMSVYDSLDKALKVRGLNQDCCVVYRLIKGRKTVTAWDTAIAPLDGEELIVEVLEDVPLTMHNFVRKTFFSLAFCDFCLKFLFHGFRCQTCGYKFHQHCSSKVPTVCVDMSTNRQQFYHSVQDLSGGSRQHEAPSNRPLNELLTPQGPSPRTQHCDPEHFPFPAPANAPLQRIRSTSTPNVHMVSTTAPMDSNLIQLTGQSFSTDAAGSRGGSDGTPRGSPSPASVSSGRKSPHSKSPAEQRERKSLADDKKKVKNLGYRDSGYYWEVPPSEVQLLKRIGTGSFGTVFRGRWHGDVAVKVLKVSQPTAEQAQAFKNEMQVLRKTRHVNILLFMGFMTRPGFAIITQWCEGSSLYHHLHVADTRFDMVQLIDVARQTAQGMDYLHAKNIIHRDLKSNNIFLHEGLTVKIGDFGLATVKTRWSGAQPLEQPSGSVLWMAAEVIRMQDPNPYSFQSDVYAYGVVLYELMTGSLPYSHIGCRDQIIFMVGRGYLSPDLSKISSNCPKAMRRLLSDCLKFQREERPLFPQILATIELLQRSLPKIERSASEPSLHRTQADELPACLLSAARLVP
Kind of data set: Inhibition of ARAF (unknown origin).

Data set [21] concerns the target T3, RAF proto-oncogene serine/threonine-protein kinase. Kind of data set: Inhibition of CRAF (unknown origin).
Data set [22] addresses T2, Serine/threonine-protein kinase B-raf.
The target of data set [23] is T1, Serine/threonine-protein kinase B-raf. The source holds these as a separate data set.
In the next data set the test system is WM 266-4. Description: Cytotoxicity in human WM266.4 cells after 72 hrs by CellTiter-Glo assay. As to conditions: WM 266-4, 72 h. Type of data set: functional, cell-based.

T2 sequence (P15056 whole entry): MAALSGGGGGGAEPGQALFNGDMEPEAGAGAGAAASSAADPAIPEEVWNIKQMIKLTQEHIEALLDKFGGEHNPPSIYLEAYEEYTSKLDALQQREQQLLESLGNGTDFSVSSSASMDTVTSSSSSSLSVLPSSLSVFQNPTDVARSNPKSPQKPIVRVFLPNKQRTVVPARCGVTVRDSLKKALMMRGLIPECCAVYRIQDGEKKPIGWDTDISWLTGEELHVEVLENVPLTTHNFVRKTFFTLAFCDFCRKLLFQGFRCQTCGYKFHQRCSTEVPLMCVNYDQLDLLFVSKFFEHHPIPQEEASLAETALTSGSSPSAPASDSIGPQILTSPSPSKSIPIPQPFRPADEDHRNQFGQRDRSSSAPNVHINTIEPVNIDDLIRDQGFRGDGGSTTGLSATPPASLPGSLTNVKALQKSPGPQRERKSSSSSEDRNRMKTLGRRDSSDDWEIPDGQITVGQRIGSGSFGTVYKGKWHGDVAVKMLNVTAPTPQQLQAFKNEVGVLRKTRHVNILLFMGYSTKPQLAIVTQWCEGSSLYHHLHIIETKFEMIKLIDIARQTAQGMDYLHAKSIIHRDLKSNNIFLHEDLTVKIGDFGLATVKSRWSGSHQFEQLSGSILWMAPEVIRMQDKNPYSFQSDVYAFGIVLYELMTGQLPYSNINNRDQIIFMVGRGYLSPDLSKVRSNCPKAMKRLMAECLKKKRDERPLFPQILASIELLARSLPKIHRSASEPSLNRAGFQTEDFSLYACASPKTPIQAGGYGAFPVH
T1 sequence (P15056 2-766 V600E limits assumed): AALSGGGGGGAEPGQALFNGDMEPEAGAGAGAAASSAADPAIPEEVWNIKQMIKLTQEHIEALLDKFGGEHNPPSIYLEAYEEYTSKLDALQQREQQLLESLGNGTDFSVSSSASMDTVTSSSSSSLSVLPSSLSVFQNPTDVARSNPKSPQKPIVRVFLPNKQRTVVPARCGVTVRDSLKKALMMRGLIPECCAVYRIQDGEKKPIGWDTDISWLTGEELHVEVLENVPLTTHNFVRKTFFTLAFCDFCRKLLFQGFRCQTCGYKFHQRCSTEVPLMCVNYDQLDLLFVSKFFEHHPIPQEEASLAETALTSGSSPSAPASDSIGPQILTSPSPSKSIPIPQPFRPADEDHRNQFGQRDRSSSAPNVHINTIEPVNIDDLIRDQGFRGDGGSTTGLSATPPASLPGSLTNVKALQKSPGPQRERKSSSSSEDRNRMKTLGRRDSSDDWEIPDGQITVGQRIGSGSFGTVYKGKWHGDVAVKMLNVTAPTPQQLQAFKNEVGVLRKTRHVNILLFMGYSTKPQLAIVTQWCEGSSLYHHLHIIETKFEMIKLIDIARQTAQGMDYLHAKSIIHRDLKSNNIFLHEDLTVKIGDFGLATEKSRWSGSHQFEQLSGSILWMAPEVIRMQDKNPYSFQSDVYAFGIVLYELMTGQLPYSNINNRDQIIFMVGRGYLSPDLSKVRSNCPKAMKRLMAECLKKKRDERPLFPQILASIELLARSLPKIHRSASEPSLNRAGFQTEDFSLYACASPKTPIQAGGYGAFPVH

As for `CSc1cc(Oc2ccnc3[nH]c(=O)cnc23)ccc1NC(=O)Nc1cc(C(C)(C)C)nn1-c1ccccc1`, the IC50 was found to be 0.005 µM in data set [1], 0.015 µM in data set [2] and 0.01 µM in the data set on A-375 [3].
On to `CCN(C)S(=O)(=O)Nc1ccc(F)c(C(=O)c2c[nH]c3ncc(-c4cnc(C5CC5)nc4)cc23)c1F`, for which the IC50 amounted to 0.016 µM in data set [4], 0.0042 µM in [5] and 0.17 µM in the data set on A-375 [6].
On to `COC(=O)Nc1nc2cc(C3(O)c4ccccc4C(=O)N3c3cc(Cl)ccc3C)ccc2[nH]1` (stereo not given) [XL-281], for which the figures for the 50% inhibitory concentration (IC50) (in data set [2]; in data set [7]; in the data set on SK-MEL19) were 0.006 µM, 2 µM and 0.2 µM, respectively.
Regarding `CC(C)(C)c1nc(-c2cccc(NS(=O)(=O)c3c(F)cccc3F)c2F)c(-c2ccnc(N)n2)s1` [DABRAFENIB], in the data set on SK-MEL-28, the IC50 is 0.043 µM.
As to `O=C(c1c(F)ccc(NS(=O)(=O)N2CC[C@H](F)C2)c1F)c1c[nH]c2ncc(-c3cnc(C4CC4)nc3)cc12`, the results for the IC50 in data set [8], in data set [4] and in data set [5] were 0.8 µM, 0.0035 µM and 0.0038 µM, respectively.
Turning to `C[C@H](NC(=O)c1ncnc(N)c1Cl)c1ncc(C(=O)Nc2cc(C(F)(F)F)c(Cl)cn2)s1`, the Tmax in data set [9] amounted to 2 h. The molecule also gave an IC50 in data set [10] of 0.248 µM.
`CC(C)(N)c1cc(C(=O)NC2CCc3ccc(Oc4ccnc5c4CCC(=O)N5)cc3C2)cc(C(F)(F)F)c1` (stereo not given) showed an IC50 with A-375 [3] of 0.2 µM.
As for `CN(C)CCOc1ccc(-c2nc(-c3ccncc3)c(-c3ccc4c(c3)CC/C4=N\O)[nH]2)cc1` [SB590885], the IC50 in the data set with A-375 [11] worked out at 0.37 µM.
Regarding `CNC(=O)c1cc(Oc2ccc(NC(=O)Nc3ccc(Cl)c(C(F)(F)F)c3)cc2)ccn1` [SORAFENIB], the IC50 in the data set on SK-MEL-30 was determined as 3.9 µM.
`CNc1ncc2cc(-c3cc(NC(=O)NCCC(C)(C)C)c(F)cc3C)c(C)nc2n1` [LY-3009120] had a half-life in data set [12] of 67 h.
With `CCCS(=O)(=O)Nc1ccc(F)c(-n2cc(-c3cncnc3)c3nc(N(C)C4CCN(CC)CC4)ccc32)c1F` [XP-102], the IC50 in data set [13] was 0.0008 µM; in data set [14] it was 0.0006 µM; with A-375 [15] it was 0.0009 µM; in [16], 0.0005 µM; in data set [17], 0.0004 µM.
With `OCCn1cc(-c2ccc3c(c2)CC/C3=N\O)c(-c2ccncc2)n1`, the EC50 in the data set with A-375 [18] was above 0.5 µM.
Consider `O=C1CCc2c(Oc3ccc4c(c3)[C@H]3[C@@H](O4)[C@@H]3c3nc4ccc(C(F)(F)F)cc4[nH]3)ccnc2N1`, for which the IC50 in [19] worked out at 0.064 µM; in data set [20], 0.0056 µM; in data set [21], 0.007 µM; in data set [22], 0.032 µM; in data set [23], 0.023 µM; in the data set with A-375 [3] it was 0.2 µM.
For `CCCS(=O)(=O)Nc1ccc(F)c(C(=O)c2c[nH]c3ncc(Cl)cc23)c1F` [PLX-4720], the IC50 in the data set on A-375 [3] was 0.5 µM.
For `CC(C)(C)c1cc(NC(=O)Nc2ccc(Oc3ccnc4[nH]c(=O)cnc34)cc2F)n(-c2ccccc2)n1`, the IC50 in the data set with WM 266-4 turned out to be 0.015 µM; in data set [1] it was 0.005 µM; in [2] it was 0.04 µM.

Broadly, the IC50 is the concentration that inhibits the measured activity by half. In general, Tmax refers to the time at which the peak concentration occurs. As usually defined, the half-life is how long it takes for the measured level to halve. Lower therefore signals rapid decline. As a reminder, the EC50 is the concentration at which the effect is half-maximal. A higher EC50 goes with a need for much substance.
